Columns and labels:
Assay in all cases: relative viability (nuclei count vs DMSO), 5 days (fraction); higher = more cells survive
EHT 1864 + Phenformin = compound: C1COCCN1CC2=CC(=O)C(=CO2)OCCCCCSC3=C4C=CC(=CC4=NC=C3)C(F)(F)F [EHT 1864] + N=C(N)NC(=N)NCCc1ccccc1 [Phenformin] (partner 250 µM)
In short: (§1)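 Lung cancer cell lines in 1536-well plates got either a single drug or a fixed anchor-drug dose together with five library-drug doses (not always all listed) in √10 steps, by pin tool, on the day after seeding. Nuclei were counted after 5 days, and relative viability is the treated-to-vehicle ratio of nuclei counts. Values are medians of duplicate plates.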

EHT 1864 + Pemetrexed = compound: C1COCCN1CC2=CC(=O)C(=CO2)OCCCCCSC3=C4C=CC(=CC4=NC=C3)C(F)(F)F [EHT 1864] + Nc1nc2[nH]cc(CCc3ccc(C(=O)N[C@@H](CCC(=O)O)C(=O)O)cc3)c2c(=O)[nH]1 [Pemetrexed] (partner 0.2 µM)
In short: as §1

EHT 1864 + Dasatinib = compound: C1COCCN1CC2=CC(=O)C(=CO2)OCCCCCSC3=C4C=CC(=CC4=NC=C3)C(F)(F)F [EHT 1864] + Cc1nc(Nc2ncc(C(=O)Nc3c(C)cccc3Cl)s2)cc(N2CCN(CCO)CC2)n1 [Dasatinib] (partner 0.075 µM)
In short: as §1

EHT 1864 + Tozasertib = compound: C1COCCN1CC2=CC(=O)C(=CO2)OCCCCCSC3=C4C=CC(=CC4=NC=C3)C(F)(F)F [EHT 1864] + Cc1cc(Nc2cc(N3CCN(C)CC3)nc(Sc3ccc(NC(=O)C4CC4)cc3)n2)n[nH]1 [Tozasertib] (partner 0.1 µM)
In short: as §1

EHT 1864 + Vorinostat = compound: C1COCCN1CC2=CC(=O)C(=CO2)OCCCCCSC3=C4C=CC(=CC4=NC=C3)C(F)(F)F [EHT 1864] + O=C(CCCCCCC(=O)Nc1ccccc1)NO [Vorinostat] (partner 1 µM)
In short: as §1

EHT 1864 + Olaparib = compound: C1COCCN1CC2=CC(=O)C(=CO2)OCCCCCSC3=C4C=CC(=CC4=NC=C3)C(F)(F)F [EHT 1864] + O=C(c1cc(Cc2n[nH]c(=O)c3ccccc23)ccc1F)N1CCN(C(=O)C2CC2)CC1 [Olaparib] (partner 8 µM)
In short: as §1

EHT 1864 + Foretinib = compound: C1COCCN1CC2=CC(=O)C(=CO2)OCCCCCSC3=C4C=CC(=CC4=NC=C3)C(F)(F)F [EHT 1864] + COc1cc2c(Oc3ccc(NC(=O)C4(C(=O)Nc5ccc(F)cc5)CC4)cc3F)ccnc2cc1OCCCN1CCOCC1 [Foretinib] (partner 0.25 µM)
In short: as §1

EHT 1864 + Palbociclib = compound: C1COCCN1CC2=CC(=O)C(=CO2)OCCCCCSC3=C4C=CC(=CC4=NC=C3)C(F)(F)F [EHT 1864] + CC(=O)c1c(C)c2cnc(Nc3ccc(N4CCNCC4)cn3)nc2n(C2CCCC2)c1=O [Palbociclib] (partner 0.5 µM)
In short: as §1

EHT 1864 + OSI-027 = compound: C1COCCN1CC2=CC(=O)C(=CO2)OCCCCCSC3=C4C=CC(=CC4=NC=C3)C(F)(F)F [EHT 1864] + COc1cccc2cc(-c3nc([C@H]4CC[C@H](C(=O)O)CC4)n4ncnc(N)c34)[nH]c12 [OSI-027] (partner 0.5 µM)
In short: as §1

EHT 1864 + Luminespib = compound: C1COCCN1CC2=CC(=O)C(=CO2)OCCCCCSC3=C4C=CC(=CC4=NC=C3)C(F)(F)F [EHT 1864] + CCNC(=O)c1noc(-c2cc(C(C)C)c(O)cc2O)c1-c1ccc(CN2CCOCC2)cc1 [Luminespib] (partner 0.01 µM)
In short: as §1

EHT 1864 + AZD7762 = compound: C1COCCN1CC2=CC(=O)C(=CO2)OCCCCCSC3=C4C=CC(=CC4=NC=C3)C(F)(F)F [EHT 1864] + NC(=O)Nc1cc(-c2cccc(F)c2)sc1C(=O)N[C@H]1CCCNC1 [AZD7762] (partner 0.2 µM)
In short: as §1

EHT 1864 + Trametinib = compound: C1COCCN1CC2=CC(=O)C(=CO2)OCCCCCSC3=C4C=CC(=CC4=NC=C3)C(F)(F)F [EHT 1864] + CC(=O)Nc1cccc(-n2c(=O)n(C3CC3)c(=O)c3c(Nc4ccc(I)cc4F)n(C)c(=O)c(C)c32)c1 [Trametinib] (partner 0.02 µM)
In short: as §1

EHT 1864 + Decitabine = compound: C1COCCN1CC2=CC(=O)C(=CO2)OCCCCCSC3=C4C=CC(=CC4=NC=C3)C(F)(F)F [EHT 1864] + Nc1ncn([C@H]2C[C@H](O)[C@@H](CO)O2)c(=O)n1 [Decitabine] (partner 2 µM)
In short: as §1

EHT 1864 = compound: C1COCCN1CC2=CC(=O)C(=CO2)OCCCCCSC3=C4C=CC(=CC4=NC=C3)C(F)(F)F [EHT 1864]
In short: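 Lung cancer cell lines in 1536-well plates were kept overnight at 37 °C, then pinned with five library-drug doses (not always all listed) spaced by √10 on vehicle-anchored plates. After 5 days without medium change, cells were fixed, permeabilised and Hoechst-stained in one step, imaged at 4×, and nuclei were counted with MetaXpress. Viability is treated-well nuclei divided by vehicle-well nuclei, taken as the median over plates. Plates passed only with control CV below 25% and at least one doubling.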

SW 900
relative viability (EHT 1864 + Phenformin; first compound 0.04 µM): 0.435 | relative viability (EHT 1864 + Phenformin; first compound 0.4 µM): 0.569 | relative viability (EHT 1864 + Phenformin; first compound 1.265 µM): 0.521 | relative viability (EHT 1864 + Phenformin; first compound 4 µM): 0.597 | relative viability (EHT 1864 + Pemetrexed; first compound 0.04 µM): 0.477 | relative viability (EHT 1864 + Pemetrexed; first compound 0.4 µM): 0.463 | relative viability (EHT 1864 + Pemetrexed; first compound 1.265 µM): 0.473 | relative viability (EHT 1864 + Pemetrexed; first compound 4 µM): 0.446 | relative viability (EHT 1864 + Dasatinib; first compound 0.04 µM): 0.809 | relative viability (EHT 1864 + Dasatinib; first compound 0.4 µM): 0.684 | relative viability (EHT 1864 + Dasatinib; first compound 1.265 µM): 1.02 | relative viability (EHT 1864 + Dasatinib; first compound 4 µM): 0.552 | relative viability (EHT 1864 + Tozasertib; first compound 0.04 µM): 0.531 | relative viability (EHT 1864 + Tozasertib; first compound 0.4 µM): 0.49 | relative viability (EHT 1864 + Tozasertib; first compound 1.265 µM): 0.577 | relative viability (EHT 1864 + Tozasertib; first compound 4 µM): 0.481 | relative viability (EHT 1864 + Vorinostat; first compound 0.04 µM): 0.54 | relative viability (EHT 1864 + Vorinostat; first compound 0.4 µM): 0.531 | relative viability (EHT 1864 + Vorinostat; first compound 1.265 µM): 0.589 | relative viability (EHT 1864 + Vorinostat; first compound 4 µM): 0.467 | relative viability (EHT 1864 + Olaparib; first compound 0.04 µM): 0.73 | relative viability (EHT 1864 + Olaparib; first compound 0.4 µM): 0.907 | relative viability (EHT 1864 + Olaparib; first compound 1.265 µM): 0.857 | relative viability (EHT 1864 + Olaparib; first compound 4 µM): 0.803 | relative viability (EHT 1864 + Foretinib; first compound 0.04 µM): 0.524 | relative viability (EHT 1864 + Foretinib; first compound 0.4 µM): 0.862 | relative viability (EHT 1864 + Foretinib; first compound 1.265 µM): 0.89 | relative viability (EHT 1864 + Foretinib; first compound 4 µM): 0.687 | relative viability (EHT 1864 + Palbociclib; first compound 0.04 µM): 0.515 | relative viability (EHT 1864 + Palbociclib; first compound 0.4 µM): 0.586 | relative viability (EHT 1864 + Palbociclib; first compound 1.265 µM): 0.573 | relative viability (EHT 1864 + Palbociclib; first compound 4 µM): 0.498 | relative viability (EHT 1864 + OSI-027; first compound 0.04 µM): 0.555 | relative viability (EHT 1864 + OSI-027; first compound 0.4 µM): 0.548 | relative viability (EHT 1864 + OSI-027; first compound 1.265 µM): 0.583 | relative viability (EHT 1864 + OSI-027; first compound 4 µM): 0.483 | relative viability (EHT 1864 + Luminespib; first compound 0.04 µM): 0.177 | relative viability (EHT 1864 + Luminespib; first compound 0.4 µM): 0.181 | relative viability (EHT 1864 + Luminespib; first compound 1.265 µM): 0.177 | relative viability (EHT 1864 + Luminespib; first compound 4 µM): 0.145 | relative viability (EHT 1864 + AZD7762; first compound 0.04 µM): 0.582 | relative viability (EHT 1864 + AZD7762; first compound 0.4 µM): 0.681 | relative viability (EHT 1864 + AZD7762; first compound 1.265 µM): 0.632 | relative viability (EHT 1864 + AZD7762; first compound 4 µM): 0.59 | relative viability (EHT 1864 + Trametinib; first compound 0.04 µM): 0.686 | relative viability (EHT 1864 + Trametinib; first compound 0.4 µM): 0.77 | relative viability (EHT 1864 + Trametinib; first compound 1.265 µM): 0.796 | relative viability (EHT 1864 + Trametinib; first compound 4 µM): 0.758 | relative viability (EHT 1864 + Decitabine; first compound 0.04 µM): 0.449 | relative viability (EHT 1864 + Decitabine; first compound 0.4 µM): 0.419 | relative viability (EHT 1864 + Decitabine; first compound 1.265 µM): 0.46 | relative viability (EHT 1864 + Decitabine; first compound 4 µM): 0.504 | relative viability (EHT 1864; 0.04 µM): 0.942 | relative viability (EHT 1864; 0.4 µM): 0.929 | relative viability (EHT 1864; 1.265 µM): 0.929 | relative viability (EHT 1864; 4 µM): 0.782

Source: the supplement of paper PMC10307832
